# From patent publication US20250213654A1, “PEPTIDES AND METHODS FOR USE IN TREATING PAIN” (TAFALGIE THERAPEUTICS, priority 2022, published 2025)
# What was measured:
# [1] = test system: Spared Nerve Injury (SNI) model of neuropathic pain; experiment: Spared Nerve Injury (SNI) model of neuropathic pain, Von Frey up-down mechanical threshold; format: in vivo, mice; conditions: SNI day 14, per os, 30 μg/mL solution in HPMC vehicle; peptides significant as soon as 1 hour (p value<0.01)
# [2] = test system: spinal lamina II interneurons; conditions: spinal lamina II interneurons (WO2014180853); cited from earlier work
# [3] = test system: injury-induced mechanical hypersensitivity; conditions: cited from earlier work
substance,measurement,setting,value
TAFA4 FL: human TAFA-4 full length mature protein (SEQ ID NO: 5) of 105 amino acid residues,antalgic effect (reversal of mechanical threshold),[1],did not show significant antalgic effect
same,effect on nerve injury-induced neuronal sensitization,[2],can reverse nerve injury-induced neuronal sensitization of the spinal lamina II interneurons
same,effect on prolonged nerve injury-induced mechanical hypersensitivity of TAFA-4 gene deleted mice,"[3]; intrathecal injection (Delfini et al., 2013)",reversed
same,effect on mechanical hypersensitivity,"[3]; male and female mice, intrathecal and subcutaneous administration (WO2014180853)","reverses inflammatory, postoperative and nerve injury-induced mechanical hypersensitivity"
